Experimental data published in article PMC10762177, “Novel betulin derivatives as multidrug reversal agents targeting P-glycoprotein” (Scientific Reports, 2024).
“Also recorded” adds a separate entry of the source. Read-outs that look alike come from different tables or passages of the source.

Experiments:
[1] = biological target: T1, P-gp (Homo sapiens, UniProt P08183); assay: Rhodamine 123 intracellular accumulation assay in K562/Dox (flow cytometry); settings: for FAR (fluorescence activity ratio): Rho123, K562/Dox; for MEC (minimum effective concentration) / dose-dependent behavior, b: Rho123 accumulation, K562/Dox
[2] = system: MA-104 cells; set-up: method as in Delou et al. 2009[44]; settings: 22 µM; ref Delou et al. 2009[44]; cited from earlier work
[3] = system: K562 cells; assay: Doxorubicin resistance reversal assay in K562 (MTT); type: cell-based; settings: K562, 1.56 µM
Protocol: (§1) Simultaneously, viability controls were run with no addition of the dissolution solvent. The cells were incubated at 37 °C at 5% CO2 for 48 h and the same protocol described above was followed. The potency of the compounds was established by means of the fold reversal (FR) values calculated from dividing the IC50 of Dox alone by the IC50 of Dox with different concentrations of each compound tested.

[4] = system: K562/Dox cells; assay: MTT colorimetric assay, cytotoxicity on resistant K562/Dox; type: cell-based; settings: MTT, K562/Dox; for IC50: 48 h, read-out: IC50 K562/Dox; for toxicity: 50 μM
Protocol: This colorimetric technique is based on the ability of viable cells to capture MTT and reduce it through the mitochondrial enzyme succinic dehydrogenase to its insoluble form, formazan crystals. The target compounds dissolved in DMSO (0.5% v/v as final concentration which was non-toxic to cells) at a maximum concentration of 50 µM were exposed to 5 × 10^4 cells distributed in a 96-well plate and incubated for 48 h. […] After this time, the plate was centrifuged at 2000 rpm for 10 min, and 100 µL of DMSO was added to dissolve the formazan crystals formed. Absorbance (Abs) was read at a wavelength of 595 nm in an iMark microplate reader (Bio-Rad, USA). The percentages of cytotoxicity were determined as compared to DMSO treated control cells, which were considered 100% viable as showing the same level of growth as the untreated cells.

[5] = system: K562 cells; assay: MTT colorimetric assay, cytotoxicity on sensitive K562; type: cell-based; settings: for IC50: MTT, 48 h, K562; for toxicity: 50 μM, K562, MTT
Protocol: This colorimetric technique is based on the ability of viable cells to capture MTT and reduce it through the mitochondrial enzyme succinic dehydrogenase to its insoluble form, formazan crystals. […] After this time, the plate was centrifuged at 2000 rpm for 10 min, and 100 µL of DMSO was added to dissolve the formazan crystals formed. Absorbance (Abs) was read at a wavelength of 595 nm in an iMark microplate reader (Bio-Rad, USA).

[6] = system: K562 cells; assay: Rhodamine 123 intracellular accumulation assay in K562 (flow cytometry); settings: for Rho123 accumulation in K562: K562, maximum concentration assayed
[7] = biological target: T1, P-gp; assay: Doxorubicin intracellular accumulation assay in K562/Dox (flow cytometry)
[8] = system: K562 cells; assay: Doxorubicin intracellular accumulation assay in K562 (flow cytometry); settings: K562, versus negative control
[9] = system: erythrocytes; assay: Erythrocyte hemolysis assay; type: cell-based, human; settings: maximum tested concentration of 50 µM, 1 h
Protocol: For the erythrocyte hemolysis assay, the red blood cell suspension was obtained from fresh heparinized blood collected from healthy human volunteer donors, without receiving any treatment. The blood sample was centrifuged at 2,500 rpm for 10 min at 4 °C. The supernatant was discarded, and the red blood cell pellet was subjected to two consecutive washes with sterile PBS, using the same centrifugation conditions. An aliquot of the pellet obtained was resuspended in PBS (3% v/v). The compounds were incubated at decreasing concentrations starting from 50 µM with the suspension at 37 °C for 1 h. Controls with 1% DMSO and no solvent were included.

[10] = system: K562/Dox cells; assay: Doxorubicin resistance reversal assay in K562/Dox (MTT); settings: for FR (fold reversal): Dox co-administered
Protocol: as §1

[11] = system: peripheral blood mononuclear cells (PBMC); assay: Cytotoxicity on peripheral blood mononuclear cells (MTT); type: cell-based, human; settings: MTT, 48 h, up to 50 µM
Protocol: (§2) . PBMC were isolated by the Ficoll-Hypaque density gradient centrifugation technique of fresh heparinized blood from healthy human volunteers. The protocol was previously approved by the Catholic University of Córdoba Research Ethics Board. Signed informed consents were obtained from donors. All methods were performed in accordance with the relevant guidelines and regulations. Briefly, 1 × 10^5 cells/well in a 96-well plate were incubated with 10 µg/mL PHA, in the presence of the corresponding concentrations of the compounds or 0.5% v/v DMSO (negative control) for 48 h, and processed as above described for the MTT method. The percentages of inhibition on cell proliferation were determined by comparison with negative controls, and the corresponding IC50 values were calculated from the best fit of the concentration-dependent inhibition curves in GraphPad Prism 7.

[12] = as above; type: cell-based, human; settings: human
Protocol: as §2

[13] = biological target: T1, P-gp
[14] = biological target: T1, P-gp; set-up: MDR phenotype mainly characterized by the overexpression of ABCB1/P-gp; endogenous in cells; host or cells: K562/Dox (formerly Lucena 1), drug-selected and kept under 60 nM Dox; parental K562 used as the low-P-gp control; settings: cited from earlier work

T1 sequence (P08183 whole entry): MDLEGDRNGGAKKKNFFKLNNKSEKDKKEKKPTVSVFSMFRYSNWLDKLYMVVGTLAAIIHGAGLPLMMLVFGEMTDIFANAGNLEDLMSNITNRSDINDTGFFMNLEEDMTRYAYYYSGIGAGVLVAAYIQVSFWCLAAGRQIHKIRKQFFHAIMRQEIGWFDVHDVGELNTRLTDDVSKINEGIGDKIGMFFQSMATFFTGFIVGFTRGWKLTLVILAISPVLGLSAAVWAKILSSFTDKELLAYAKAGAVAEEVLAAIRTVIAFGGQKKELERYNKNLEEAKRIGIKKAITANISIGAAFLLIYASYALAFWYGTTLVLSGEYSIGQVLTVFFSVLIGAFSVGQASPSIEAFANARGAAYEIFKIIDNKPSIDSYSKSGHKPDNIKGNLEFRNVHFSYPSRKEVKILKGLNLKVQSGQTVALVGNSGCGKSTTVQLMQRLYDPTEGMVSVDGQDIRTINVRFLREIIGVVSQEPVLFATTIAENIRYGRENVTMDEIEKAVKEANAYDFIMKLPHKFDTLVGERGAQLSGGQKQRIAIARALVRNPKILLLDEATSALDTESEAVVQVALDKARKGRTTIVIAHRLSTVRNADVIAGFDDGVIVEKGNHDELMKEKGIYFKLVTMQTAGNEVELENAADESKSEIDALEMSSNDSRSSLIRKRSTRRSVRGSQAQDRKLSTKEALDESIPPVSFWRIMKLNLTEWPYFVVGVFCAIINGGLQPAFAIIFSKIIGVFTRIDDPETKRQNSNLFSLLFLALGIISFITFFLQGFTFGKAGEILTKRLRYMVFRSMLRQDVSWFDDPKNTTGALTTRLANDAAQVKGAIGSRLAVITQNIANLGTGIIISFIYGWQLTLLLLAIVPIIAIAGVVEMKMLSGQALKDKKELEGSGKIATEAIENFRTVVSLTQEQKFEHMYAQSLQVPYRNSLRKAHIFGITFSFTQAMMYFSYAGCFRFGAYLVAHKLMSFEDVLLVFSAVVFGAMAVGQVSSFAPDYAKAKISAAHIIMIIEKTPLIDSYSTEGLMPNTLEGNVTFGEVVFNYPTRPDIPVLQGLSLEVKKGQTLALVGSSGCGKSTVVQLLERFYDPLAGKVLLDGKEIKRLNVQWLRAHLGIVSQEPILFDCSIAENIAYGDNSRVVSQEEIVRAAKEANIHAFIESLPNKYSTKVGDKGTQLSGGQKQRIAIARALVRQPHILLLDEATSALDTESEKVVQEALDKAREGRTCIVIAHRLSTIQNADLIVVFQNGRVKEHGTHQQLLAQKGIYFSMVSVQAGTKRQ

| SMILES | FAR (fluorescence activity ratio) ([1]; 50 µM) | FAR (fluorescence activity ratio) ([1]; 0.78 µM) | FAR (fluorescence activity ratio) ([1]; 1.56 µM) | FAR (fluorescence activity ratio) ([1]; 3.12 µM) | FAR (fluorescence activity ratio) ([1]; 6.25 µM) | MEC (minimum effective concentration) [1] [µM] | IC50 ([4]; Homo sapiens, K562, 48 h) [µM] | IC50 ([5]; Homo sapiens, K562, 48 h) [µM] | MEC, Dox accumulation [7] [µM] | toxicity [4] | toxicity [5] | IC50 [5] [µM] | further results |
| --- | --- | --- | --- | --- | --- | --- | --- | --- | --- | --- | --- | --- | --- |
| C=C(C)[C@@H]1CC[C@]2(C(=O)O)CC[C@]3(C)[C@H](CC[C@@H]4[C@@]5(C)CC[C@H](O)C(C)(C)[C@@H]5CC[C@]43C)[C@@H]12 [Compound 2, betulinic acid, reference compound] | 1.05 ± 0.04 | – | – | – | – | – | – | – | – | – | – | – | Rho123 accumulation in MA-104 cells [2]: not to alter Rho123 accumulation |
| C=C(C)[C@@H]1CC[C@]2(COC(=O)NCCc3cc(OC)c(OC)c(OC)c3)CC[C@]3(C)[C@H](CC[C@@H]4[C@@]5(C)CC[C@H](O)C(C)(C)[C@@H]5CC[C@]43C)[C@@H]12 [Compound 6g] | 4.02 ± 0.70 | 1.33 ± 0.14 | 1.61 ± 0.23 | 2.05 ± 0.36 | 2.62 ± 0.49 | 0.19 | > 50 | > 50 | 0.098 | – | – | – | reversal effect on parental K562 [3]: slight increase in Dox toxicity; FAR (fluorescence activity ratio) ([1]; 0.098 µM): 1.00 ± 0.04; FAR (fluorescence activity ratio) ([1]; 0.19 µM): 1.09 ± 0.03; FAR (fluorescence activity ratio) ([1]; 25 µM): 3.47 ± 0.61; dose-dependent behavior, b [1]: 64.49; Rho123 accumulation in K562 [6]: did not increase Rho123 accumulation; FAR, Dox accumulation ([7]; 50 µM): 1.26 ± 0.02; Dox accumulation in K562 [8]: did not increase Dox accumulation; erythrocyte hemolysis [9]: devoid of toxic effects; also recorded: Neither compound induced erythrocyte hemolysis; MEC, Dox resistance reversal ([10]; K562/Dox): 0.024 µM; potency for restoring the cytotoxicity of Dox relative to compound 1 (times) ([10]; K562/Dox): 16; FR (fold reversal) ([10]; K562/Dox, 0.024 µM): 1.17 ± 0.05; FR (fold reversal) ([10]; K562/Dox, 0.78 µM): 3.98 ± 0.71; FR (fold reversal) ([10]; K562/Dox, 1.56 µM): 5.37 ± 1.36; cytotoxicity on PBMC [11]: devoid of toxic effects; also recorded: did not reveal cytotoxicity |
| C=C(C)[C@@H]1CC[C@]2(COC(=O)N3CCN(C)CC3)CC[C@]3(C)[C@H](CC[C@@H]4[C@@]5(C)CC[C@H](O)C(C)(C)[C@@H]5CC[C@]43C)[C@@H]12 [Compound 6i] | – | 1.30 ± 0.06 | 1.41 ± 0.14 | 1.71 ± 0.06 | 2.04 ± 0.05 | 0.39 | 33.91 ± 0.09 | 19.1 | 0.098 | more than 55% | more than 55% | 19.1 ± 0.87 | reversal effect on parental K562 [3]: did not show a reversal effect; FAR (fluorescence activity ratio) ([1]; 0.19 µM): 1.08 ± 0.05; dose-dependent behavior, b [1]: 40.14; Rho123 accumulation in K562 [6]: did not increase Rho123 accumulation; FAR, Dox accumulation ([7]; 25 µM): 1.27 ± 0.03; Dox accumulation in K562 [8]: did not increase Dox accumulation; erythrocyte hemolysis [9]: devoid of toxic effects; also recorded: Neither compound induced erythrocyte hemolysis; potency for restoring the cytotoxicity of Dox relative to compound 1 (times) [10]: nearly twice; MEC, Dox resistance reversal ([10]; K562/Dox): 0.19 µM; FR (fold reversal) ([10]; K562/Dox, 0.19 µM): 1.39 ± 0.07; FR (fold reversal) ([10]; K562/Dox, 0.78 µM): 1.63 ± 0.06; FR (fold reversal) ([10]; K562/Dox, 1.56 µM): 2.69 ± 0.39; IC50 at 48 h [12]: 26.4 ± 2.88 µM; viability at 48 h, 50 µM [12]: 64% |
| C=C(C)[C@@H]1CC[C@]2(COC(=O)NCCN3CCNCC3)CC[C@]3(C)[C@H](CC[C@@H]4[C@@]5(C)CC[C@H](O)C(C)(C)[C@@H]5CC[C@]43C)[C@@H]12 [Compound 6k] | – | 1.03 ± 0.17 | 1.35 ± 0.08 | 1.48 ± 0.07 | 2.24 ± 0.24 | 1.56 | 27 ± 1.34 | 9.4 | – | more than 55% | more than 55% | 9.44 ± 0.08 | – |
| C=C(C)[C@@H]1CC[C@]2(COC(=O)NCc3ccc(N4CCN(C)CC4)cc3)CC[C@]3(C)[C@H](CC[C@@H]4[C@@]5(C)CC[C@H](O)C(C)(C)[C@@H]5CC[C@]43C)[C@@H]12 [Compound 6l] | – | – | – | 1.08 ± 0.05 | 1.30 ± 0.04 | 6.25 | 17.4 ± 0.59 | 8 ± 1.98 | – | more than 55% | more than 55% | – | FAR (fluorescence activity ratio) ([1]; 12.50 µM): 1.55 ± 0.03 |
| C=C(C)[C@@H]1CC[C@]2(COC(=O)N3CCc4cc(OC)c(OC)cc4C3)CC[C@]3(C)[C@H](CC[C@@H]4[C@@]5(C)CC[C@H](O)C(C)(C)[C@@H]5CC[C@]43C)[C@@H]12 [Compound 6m] | 2.06 ± 0.15 | – | 1.03 ± 0.12 | 1.17 ± 0.03 | 1.27 ± 0.09 | 3.12 | > 50 | > 50 | – | – | – | – | FAR (fluorescence activity ratio) ([1]; 12.50 µM): 1.32 ± 0.14; FAR (fluorescence activity ratio) ([1]; 25 µM): 1.52 ± 0.09 |
| COc1cc2c(cc1OC)CN(CCc1ccc(NC(=O)c3cc(OC)c(OC)cc3NC(=O)c3cnc4ccccc4c3)cc1)CC2 [Tariquidar, tariquidar, reference compound] | – | 1.12 ± 0.03 | – | – | – | 0.78 | 2.2 | 2.4 | 0.39 | – | – | 2.38 ± 0.32 | IC50 [4]: 2.25 ± 0.28 µM; FAR (fluorescence activity ratio) ([13]; 1.56 µM): 1.22 ± 0.05; FAR (fluorescence activity ratio) ([13]; 3.12 µM): 1.14 ± 0.03; FAR (fluorescence activity ratio) ([6]; Rho123, K562, 3.12 µM): 0.82 ± 0.11 |
| C=C(C)[C@@H]1CC[C@]2(C)CC[C@]3(C)[C@H](CC[C@@H]4[C@@]5(C)CC[C@H](O)C(C)(C)[C@@H]5CC[C@]43C)[C@@H]12 [lupeol] | – | – | – | – | – | – | – | – | – | – | – | – | effective concentration, P-gp inhibition [14]: 100 µM |
| CC1(C)CC[C@]2(C(=O)O)CC[C@]3(C)C(=CC[C@@H]4[C@@]5(C)CC[C@H](O)C(C)(C)[C@@H]5CC[C@]43C)[C@@H]2C1 [oleanolic acid] | – | – | – | – | – | – | – | – | – | – | – | – | effective concentration, P-gp inhibition [14]: 2 µM |
